Data: paper PMC5905968, “Evaluation of the fusion inhibitor P3 peptide as a potential microbicide to prevent HIV transmission in women” (PLoS ONE, 2018)

Tests used:
HIV-1 isolate 93AOHDC250 = experiment: Single-round viral infectivity assay, luciferase, TZM-bl reporter cells, after exposure of P3 to fluids, temperature, pH or H2O2
Experimental: The antiviral activity of P3 in the presence of SP and VFS was determined with a single-round viral infectivity assay using TZM-bl reporter cells, as previously described. Briefly, TZM-bl cells were plated (1x10^4 cells/well) in a 96-plate and incubated overnight at 37°C with 5% CO2. […] The same procedure was done with VFS and with SP+VFS. Cells were then infected with 200 TCID50 (in 100 μl) of HIV-1 isolate 93AOHDC250 and incubated for 48h before measuring the luciferase activity with the Pierce Firefly Luc One-Step Glow Assay Kit (ThermoFisher Scientific, Rockford, USA) according to the manufacturer’s instructions. At least two independent experiments, each in triplicate, were performed for each antiviral activity analysis. For these experiments, the positive control was made of cells plus virus, the negative control was made of cells plus complete growth medium, compound controls were made of cells plus P3 alone or P3 in SP, VFS or SP+VPS, and the biological fluids control were made of cells plus SP, VFS or SP+VFS.
The long-term stability of P3 was evaluated in the presence of SP [0.5% or 1% (v/v)] or VFS at 37°C for a period of 24h, 48h and 1 week before performing the assay, as described above. In all cases, P3 was considered stable in the presence of biologic fluids if its antiviral activity was unaffected by SP, VFS and SP+VFS. In addition, peptide concentration was determined after exposure to the above conditions by mass spectrometry as described below.
The stability and antiviral activity of P3 were evaluated at different conditions of temperature, pH and oxidation. […] The antiviral activity of each peptide solution was then evaluated with a single-round viral infectivity assay using TZM-bl reporter cells and HIV-1 isolate 93AOHDC250, as described above.
The effect of pH on P3 was evaluated at pH ranging from 4 to 8. Briefly, IC50 peptide solutions were prepared in GM and the pH was adjusted using HCl (1M) or NaOH (1M). Each solution was then incubated at 37°C for 2, 8 and 24 hours and their antiviral activity was determined in a single-round viral infectivity assay using a luciferase reporter gene assay in TZM-bl cells as described above.
To test for oxidation by H2O2, P3 solutions at concentrations corresponding to the IC50 and IC90 were treated with H2O2 at biologic relevant concentrations (1.2μM and 5μM). The antiviral activity of the different solutions was determined in a single-round viral infectivity assay using a luciferase reporter gene assay in TZM-bl cells, as described above.
Controls for these experiments were the following: positive controls (cells plus virus), negative controls (cells plus complete growth medium); pH compound controls (cells plus P3 in different pH growth medium); H2O2 compound controls (cells plus P3 in H2O2, 1.2μM or 5μM); cell controls were also performed under the same incubation conditions. H2O2 and pH cytotoxicity were assessed in TZM-bl cells using alamarBlue assay. In all cases, P3 was considered stable when its antiviral activity was unaffected under the different conditions tested.

[1] = test system: Pseudomonas aeruginosa (clinical strain); experiment: Anti-bacterial activity, MIC by agar diffusion; format: cell-based; settings: disks, Mueller-Hinton agar, 37°C, maximum concentration tested 228.4 μM
Experimental: (§1) Anti-bacterial activity of P3 was determined according to CLSI guidelines. The following bacteria were used: reference strains E. coli ATCC 10536, Staphylococcus aureus ATCC 6538, Bacillus subtilis ATCC 6633 and Enterococcus faecalis ATCC 29212; clinical strains of E. coli and Pseudomonas aeruginosa isolated in our laboratory; and strains of Lactobacillus rhamnosus and Lactobacillus plantarum also isolated in our laboratory. The Minimum Inhibitory Concentration (MIC) was determined by the agar diffusion method, in plates of Mueller-Hinton agar or Rogosa agar (for Lactobacilli). Briefly, 10^8cfu/ml bacterial suspensions were prepared in sterile water and spread in the culture media. Sterile disks containing different concentrations of P3 were placed on the inoculated surface. Plates were incubated at 37°C for 24h or 48h. Lactobacilli were incubated at microaerophilic conditions. A negative control made of sterile water was used. Disks of amoxicillin and imipenem were used as positive controls.

Lactobacillus plantarum = experiment: Anti-bacterial activity, MIC by agar diffusion; format: cell-based; settings: disks, Rogosa agar, 37°C, microaerophilic, maximum concentration tested 228.4 μM
Experimental: as §1

[2] = test system: Bacillus subtilis ATCC 6633; experiment: Anti-bacterial activity, MIC by agar diffusion; format: cell-based; settings: disks, Mueller-Hinton agar, 37°C, maximum concentration tested 228.4 μM
Experimental: as §1

[3] = test system: Enterococcus faecalis ATCC 29212; experiment: Anti-bacterial activity, MIC by agar diffusion; format: cell-based; settings: disks, Mueller-Hinton agar, 37°C, maximum concentration tested 228.4 μM
Experimental: as §1

Lactobacillus rhamnosus = experiment: Anti-bacterial activity, MIC by agar diffusion; format: cell-based; settings: disks, Rogosa agar, 37°C, microaerophilic, maximum concentration tested 228.4 μM
Experimental: as §1

[4] = test system: E. coli (clinical strain); experiment: Anti-bacterial activity, MIC by agar diffusion; format: cell-based; settings: disks, Mueller-Hinton agar, 37°C, maximum concentration tested 228.4 μM
Experimental: as §1

E. coli ATCC 10536 = experiment: Anti-bacterial activity, MIC by agar diffusion; format: cell-based; settings: disks, Mueller-Hinton agar, 37°C, maximum concentration tested 228.4 μM
Experimental: as §1

[5] = test system: Staphylococcus aureus ATCC 6538; experiment: Anti-bacterial activity, MIC by agar diffusion; format: cell-based; settings: disks, Mueller-Hinton agar, 37°C, maximum concentration tested 228.4 μM
Experimental: as §1

CC[C@H](C)[C@H](NC(=O)[C@H](CC(N)=O)NC(=O)[C@H](C)NC(=O)[C@H](CCC(=O)O)NC(=O)[C@H](CC(C)C)NC(=O)[C@H](Cc1ccc(O)cc1)NC(=O)[C@H](CCCNC(=N)N)NC(=O)[C@@H](NC(=O)[C@H](CCC(N)=O)NC(=O)[C@H](CCC(N)=O)NC(=O)[C@H](CCC(=O)O)NC(=O)[C@H](Cc1c[nH]c2ccccc12)NC(=O)[C@H](CCC(=O)O)NC(=O)[C@H](CCC(N)=O)NC(=O)[C@H](Cc1c[nH]c2ccccc12)NC(C)=O)C(C)C)C(=O)N[C@@H](CO)C(=O)N[C@@H](CCC(N)=O)C(=O)N[C@@H](CCCNC(=N)N)C(=O)N[C@@H](CC(C)C)C(=O)N[C@@H](CCC(=O)O)C(=O)N[C@@H](CCC(N)=O)C(=O)N[C@@H](C)C(=O)N[C@@H](CCC(N)=O)C(=O)N[C@H](C(=O)N[C@@H](CCC(N)=O)C(=O)N[C@@H](CCC(N)=O)C(=O)N[C@@H](CCC(=O)O)C(=O)N[C@@H](CCCCN)C(=O)N[C@@H](CC(N)=O)C(=O)N[C@@H](CCSC)C(=O)N[C@@H](Cc1ccc(O)cc1)C(=O)N[C@@H](CCC(=O)O)C(=O)N[C@@H](CC(C)C)C(=O)N[C@@H](CCC(N)=O)C(N)=O)[C@@H](C)CC [P3]
antiviral activity in the presence of SP 1% (HIV-1 isolate 93AOHDC250; P3 366.4 nM, seminal plasma 1% (v/v), 37°C, 1 week): significant decrease of antiviral activity | antiviral activity in the presence of human fluids (HIV-1 isolate 93AOHDC250; P3 366.4 nM, SP 0.5% or 1% (v/v), VFS, SP+VFS, 37°C, up to 1 week of contact, at least two experiments in triplicate): unaffected | time of full antiviral activity in the presence of human biological fluids (HIV-1 isolate 93AOHDC250; P3 366.4 nM, SP 0.5% or 1%, VFS, 37°C): at least 48 h | mean viral inhibition (HIV-1 isolate 93AOHDC250; P3 at IC90 (366.4 nM) in growth medium, incubated 1 week at 25°C before assay): 99% | mean viral inhibition (HIV-1 isolate 93AOHDC250; P3 at IC90 (366.4 nM) in growth medium, incubated 1 week at 37°C before assay): 99% | mean viral inhibition (HIV-1 isolate 93AOHDC250; P3 at IC90 (366.4 nM) in growth medium, incubated 1 week at 65°C before assay): 100% | mean viral inhibition (HIV-1 isolate 93AOHDC250; control: P3 at IC90 (366.4 nM), antiviral activity determined after 48h at 37°C): 99% | MIC [1]: > 228.4 µM | MIC (Lactobacillus plantarum): > 228.4 µM | MIC [2]: > 228.4 µM | MIC [3]: > 228.4 µM | MIC (Lactobacillus rhamnosus): > 228.4 µM | MIC [4]: > 228.4 µM | MIC (E. coli ATCC 10536): > 228.4 µM | MIC [5]: > 228.4 µM
